In patent publication US20090053138A1, “Stabilized Aptamers to Platelet Derived Growth Factor and their Use as Oncology Therapeutics” (priority 2002, published 2009):
[HEG] = hexaethylene glycol spacer joining aptamer pieces; [invdT] = inverted (3'-3') thymidine

What was measured:
[1] = biological target: T1, PDGF BB (Homo sapiens, UniProt P01127); assay: Binding of ARC124 to PDGF BB
[2] = biological target: T2, PDGF AB (Homo sapiens, UniProt P01127); assay: Binding of ARC124 to PDGF AB
[3] = biological target: T1, PDGF BB; assay: 3T3 cell proliferation assay (PDGF-BB induced); type: cell-based, rat; parameters: purchased PeproTech, Rocky Hill, N.J; conditions: after lyophilization and storage at −20 degrees celsius for 2 years
Method: 3T3 cells, a rat fibroblast cell line (ATCC, Manassas, Va.), were plated 3,000 cells/well in a 96 well plate one day prior to the start of the assay in 100 ul DMEM/10% FCS. The following day, cells were washed once with straight DMEM and then 75 ul DMEM/0.8% FCS was added to each well. […] Cells were incubated for 3 days. Following incubation 10 ul MTT (Promega, Madison, Wis.) was added to each well and incubated for an additional 1.5 hours. Media was then removed, 200 ul Isopropanol (2-propanol) was added to each well, cells were re-suspended thoroughly and absorbance at 570 nm was read on a 96 well plate reader.
(§1) 3T3 cells, which are derived from a rat fibroblast cell line (ATCC, Manassas, Va.), were used in a proliferation assay to test potency of modified ARC513 aptamers. 3T3 fibroblast cells have PDGF receptors on their cell-surface and respond to mitogen, e.g., PDGF stimulation by proliferation. The assay was performed as follows: 3T3 cells were plated 3,000 cells/well in a 96 well plate one day prior to the start of the assay in 100 ul DMEM/10% FCS. The following day, cells were washed once with straight DMEM and then 75 ul DMEM/0.8% FCS was added to each well. Then 25 ul of PDGF-BB (PeproTech, Rocky Hill, N.J.) at a 50 ng/ml final concentration was added to each well +/− aptamer condition to be tested. […] The functional PDGF aptamer dilutions usually consisted of 6 points in 2-fold serial dilutions.
Cells were incubated for 3 days. Following incubation 10 ul MTT (Promega, Madison, Wis.) was added to each well and incubated for an additional 1.5 hours. Media was removed, 200 μl Isopropanol (2-propanol) was added to each well, cells were re-suspended thoroughly and absorbance at 570 nm was read on a 96 well plate reader. The present example depicts the potency comparison of PDGF aptamer ARC: 513 to that of ARC 513 variants.
The 3T3 proliferation assay previously described was used to test potency of all PEG conjugated ARC513 variants described immediately above. The assay was performed as follows: 3T3 cells were plated 3,000 cells/well in a 96 well plate one day prior to the start of the assay in 100 ul DMEM/10% FCS. The following day, cells were washed once with straight DMEM and then 75 ul DMEM/0.8% FCS was added to each well. Then 25 ul of PDGF-BB (PeproTech, Rocky Hill, N.J.) at a 50 ng/ml final concentration was added to each well +/− aptamer condition to be tested. […] The functional PDGF aptamer dilutions usually consisted of 6 points in 2-fold serial dilutions.
Cells were incubated for 3 days. Following incubation 10 ul MTT (Promega, Madison, Wis.) was added to each well and incubated for an additional 1.5 hours. Media was removed, 200 μl Isopropanol (2-propanol) was added to each well, cells were re-suspended thoroughly and absorbance at 570 nm was read on a 96 well plate reader. The present example depicts the potency comparison of PDGF aptamer ARC513 to that of PEGylated ARC513 aptamers.
as §1, with “3T3” for “3T3 cells, which are derived from a rat fibroblast cell line (ATCC, Manassas, Va.), were used in a proliferation assay to test potency of modified ARC513 aptamers. 3T3”, “100 μl” for “100 ul”
Cells were incubated for 3 days. Following incubation 10 ul MTT (Promega, Madison, Wis.) was added to each well and incubated for an additional 1.5 hours. Media was removed, […] Isopropanol (2-propanol) was added to each well, cells were re-suspended thoroughly and absorbance at 570 nm was read on a 96 well plate reader.

[4] = biological target: T3, PDGF-BB (Mus musculus, UniProt P31240); assay: Competition binding assay, mouse PDGF-BB
T3 construct: purchased PeproTech, Rocky Hill, N.J
T3 sequence (P31240 82-190 limits assumed): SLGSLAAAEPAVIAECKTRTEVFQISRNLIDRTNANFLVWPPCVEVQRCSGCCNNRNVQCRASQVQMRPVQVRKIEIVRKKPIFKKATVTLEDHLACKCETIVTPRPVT
Text: (§2) Next, a study was done to determine whether ARC126 cross reacted with PDGF-BB of species other than human. Competition binding assays were set up by dot blot analysis, as previously described, using human, rat, and mouse PDGF-BB (PeproTech, Rocky Hill, N.J.).

[5] = biological target: T4, PDGF-AA (Homo sapiens, UniProt P04085); assay: Competition binding assay, PDGF-AA
T4 construct: purchased PeproTech, Rocky Hill, N.J
Text: as §2
(§3) The competitive binding assay previously described was used to determine the in vitro binding affinity and selectivity of ARC594 for different PDGF isoforms. Different concentrations of unlabeled, competitor aptamer were titrated in separate reactions against a fixed (<0.1 nM) amount of ^32P-radiolabeled ARC594 in buffer containing a fixed amount (0.1 nM) of the aptamer's cognate target (PDGF-BB; PeproTech). UnPEGylated version of ARC594 was radiolabeled at the 5′ terminus by incubation with γ-^32P-ATP (ICN) and polynucleotide kinase (NEB). Binding reactions were carried out in phosphate-buffered saline (Cellgro) containing 0.2 mg/mL bovine serum albumin (NEB) and 0.02 mg/mL tRNA (Sigma). […] The data was expressed as the ratio of the counts per minute (CPM) of radioactivity due to ^32P-ARC594 bound to PDGF BB on the nitrocellulose membrane (CPMnitrocellulose or CPMnc) over the total CPM (CPMtotal=CPMnitrocellulose+CPMnylon).

[6] = biological target: T1, PDGF BB; assay: Dot-blot binding assay, PDGF BB; conditions: entirely DNA ARC126 used in the multivalent aptamer
Method: Binding data for the constituent aptamers and the multivalent aptamers were collected by dot-blot assays in which radio-labeled aptamer is incubated with protein target and then forced through a sandwich of nitrocellulose over nylon and the results shown in FIG. 22. Protein-associated radio-label is captured on the nitrocellulose membrane while the balance of the radio-label is captured on the nylon membrane. The radio-label data is collected on a phosphorimaging plate. […] The multivalent aptamers TK.131.012.A (SEQ ID NO. 9) and TK.131.012.B (SEQ ID NO. 10) were made synthetically.

[7] = biological target: T1, PDGF BB; assay: Competition binding assay, PDGF-BB; parameters: purchased PeproTech, Rocky Hill, N.J; conditions: human PDGF-BB; read-out: Kd
Method: Binding reactions were carried out in phosphate-buffered saline (Cellgro, Herndon, Va.) containing 0.2 mg/mL bovine serum albumin (NEB) and 0.02 mg/mL tRNA (Sigma, St. Louis, Mo.). The reactions were equilibrated for a period of 15-30 minutes at room temperature, then filtered through a sandwich of nitrocellulose (Protran membrane, Perkin-Elmer, Boston, Mass.) and nylon (Hybond membrane, Amersham, Piscataway, N.J.) membranes to separate target bound aptamer from free aptamer.
as §2
as §3, with “(Sigma). The reactions were equilibrated for a period of 15-30 minutes at room temperature, then filtered through a sandwich of nitrocellulose (Protran membrane, Perkin-Elmer) and nylon (Hybond membrane, Amersham) membranes to separate target bound aptamer from free aptamer.” for “(Sigma).”

[8] = biological target: T2, PDGF AB; assay: Competition binding assay, PDGF-AB; parameters: purchased PeproTech, Rocky Hill, N.J
Text: as §2, §3

[9] = biological target: T5, PDGF-BB (Rattus norvegicus, UniProt Q05028); assay: Competition binding assay, rat PDGF-BB
T5 construct: purchased PeproTech, Rocky Hill, N.J
T5 sequence (Q05028 66-174 limits assumed): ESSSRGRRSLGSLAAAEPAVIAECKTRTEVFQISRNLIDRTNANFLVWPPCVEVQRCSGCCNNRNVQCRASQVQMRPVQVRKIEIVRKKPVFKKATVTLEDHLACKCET
Text: as §2

[10] = system: HCT-116 tumor; conditions: irinotecan 100 mg/kg plus Gleevec 50 mg/kg orally twice a day
Method: Each group was assigned to a treatment regimen as follows. […] Doses were adjusted for changing body weight twice per week and all mice were dosed with vehicle or aptamer at 10 ml of dosing solution per kg body weight given intraperitoneally. […] Groups 3, 10 and 11 were dosed with vehicle intraperitinoneally once per day from days 8-25. Groups 3, 5, 7, 8, and 9 were dosed on day 11, 18 and 25 with irintoecan (100 mg/kg, intraperitoneally). […] Group 11 was dosed on day 11 and 25 with irintoecan (100 mg/kg, intraperitoneally) and twice a day with imatinib at 50 mg/kg given orally on days 8-12 and 23-25.
The aptamer was allowed to come to room temperature for an hour before dosing. Unused material was stored at 4° C. for use the next day. Normal saline for the vehicle control was sterile filtered into sample vials and stored in the same manner as the aptamer dosing solutions. Aptamer and vehicle dosing solutions were coded so that the personnel dosing were blinded from their identity.

[11] = system: HT29 colon cancer xenograft; assay: HT29 colon cancer xenograft model; type: in vivo, Nu/Nu mice; conditions: GLEEVEC 50 mg/kg orally BID Qd5 + irinotecan 150 mg/kg weekly vs irinotecan alone
[12] = system: LS174T colon cancer xenograft; conditions: Monday through Friday
Text: Experimental overview. Human HT-29 or LS174T colon cancer xenotransplants were established in athymic nude mice (Nu/Nu mice, Charles River Labs, Wilmington, Mass.) by injecting mice with 1×10^7 HT29 cells (ATCC, Manassas, Va.), or 2×10^6 LS174T cells (ATCC Manassas, Va.) sub-cutaneously and allowing the tumors to grow for 5 days. On day 5, two dimensional measurements of the established tumors were taken using a digital caliper. Once tumor measurements were taken, the mice were randomized into groups such that the average tumor size was the same in each group. […]
A third experiment (Experiment 3) was designed to test ARC308/irinotecan and GLEEVEC™/irinotecan dosing regimens in a colon cancer xenotransplant model using human colon carcinoma cell line LS174T (ATCC). […] ARC308 was dosed via intraperitoneal delivery at 50 mg/kg once daily, and GLEEVEC™ was dosed at 50 mg/kg once daily, Monday through Friday. ARC308 prevents PDGF-BB from binding the PDGF receptor; this molecule has a 30K PEG attached. […] The results are statistically significant (two tailed students T-test).
An efficacy analysis of three treatment groups in this study is shown in Table 10 in terms of log cell kill and log cell kill net. Log cell kill is the log(base10) of the number of tumor cells before treatment divided by the number of cells after treatment. […] A fourth experiment (Experiment 4) was designed to further test ARC308/irinotecan dosing regimens in a colon cancer xenotransplant model using human colon carcinoma cell line LS174T (ATCC). […]

T1 sequence (P01127 82-190 limits assumed): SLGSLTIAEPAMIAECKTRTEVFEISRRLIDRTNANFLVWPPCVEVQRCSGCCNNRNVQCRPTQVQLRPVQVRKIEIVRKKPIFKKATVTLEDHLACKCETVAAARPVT
T2 sequence (P01127 82-190 limits assumed, other chains not shown): as the sequence (P01127 82-190 limits assumed) above

Compound: 5′ CACAGGCTACGGCACGTAGAGCATCACCATGATCCTGTG-3′InvdT (SEQ ID NO:11) (DNA, 3' [invdT], backbone not given here) [ARC124]
- Kd [1]: ~0.1 nM
- Kd [2]: ~0.1 nM

Compound: 5′-(SEQ ID NO: 1)-HEG-(SEQ ID NO:2)-HEG-(SEQ ID NO:3)-3′-dT-3′ (chain 1 CAGGCUACG; chain 2 CGTAGAGCAUCA; chain 3 TGATCCUG; piece 1: 2'-fluoro at 6, 8, 2'-O-methyl at 9, 3' [HEG], other sugars and backbone not given here; piece 2: 2'-O-methyl at 5, 7, 12, 2'-fluoro at 10, 11, 3' [HEG], other sugars and backbone not given here; piece 3: 2'-fluoro at 5, 6, 7, 2'-O-methyl at 8, 3' [invdT], other sugars and backbone not given here) [ARC126]
- potency of legacy aptamers vs newly synthesized [3]: just as potent
- affinity for mouse PDGF-BB [4]: equal affinity
- Kd ([4]; read-out: affinity for mouse PDGF-BB): ~0.1 nM
- binding to PDGF-AA [5]: does not bind
- Kd [6]: ~0.1 nM
- Kd [7]: ~0.1 nM
- Kd [8]: ~0.1 nM
- affinity for rat PDGF-BB [9]: equal affinity
- Kd ([9]; read-out: affinity for rat PDGF-BB): ~0.1 nM

Compound: Cc1ccc(NC(=O)c2ccc(CN3CCN(C)CC3)cc2)cc1Nc1nccc(-c2cccnc2)n1 [GLEEVEC™, imatinib, reference compound]
- mice dead by day 17 [10]: 4 of 12
- efficacy of irinotecan (rate of tumor growth) [11]: enhanced the efficacy of irinotecan treatment
- tolerability of dosing regimen ([12]; Experiment 2: GLEEVEC 100 mg/kg once daily, P.O.): made the animals moribund
- efficacy of irinotecan (rate of tumor growth) ([12]; Experiment 3: GLEEVEC 50 mg/kg once daily, P.O + irinotecan): did not enhance the efficacy of Irinotecan
